# Experimental data taken from paper PMC8615111, “Phenolic Thiazoles with Antioxidant and Antiradical Activity. Synthesis, In Vitro Evaluation, Toxicity, Electrochemical Behavior, Quantum Studies and Antimicrobial Screening” (Antioxidants, 2021).
# pIC50: −log10 of the molar value. Where two headings read alike, the source gives them in different places. Marks after values point to notes of the source that are not given here.
# How the values were obtained:
# [1] = parameters: method as in doi:10.1016/j.molstruc.2021.131278; settings: cited from earlier work
# [2] = parameters: method as in doi:10.1016/j.molstruc.2021.131278; settings: cited from earlier work; remark: listed apart in the source
# [3] = parameters: method as in doi:10.1016/j.molstruc.2021.131278; settings: cited from earlier work; remark: listed apart in the source
# HaCaT cells [4] = assay: Cytotoxicity determination, MTT method; assay type: cell-based; settings: Homo sapiens, HaCaT cells, MTT, 24 h; for pIC50: read-out: IC50; for IC50: read-out: IC50 (µg/mL)
# Experimental: To determine the cytotoxic action of the obtained compounds 5[…], and 8a-b, a normal human keratinocytes cell line was used (HaCaT keratinocytes, CLS-300493, Eppelheim, Germany). HaCaT cells were cultured in Dulbecco's Modified Eagle Media (DMEM) supplemented with 1% L-glutamine, 1% penicillin-streptomycin, and 5% fetal bovine serum. At 80% confluence, the cells were transferred to 96 well plates at a confluence of 12×10^3 cells/well and left to attach for 24 h at 37°C and 5% CO2 in a humidified atmosphere. […] After 24 h, the culture media was replaced with 100 μL of MTT solution at a final concentration of 5 μg/mL/well and left to interact with the cells for 2 h in the incubator. After this, the MTT solution was replaced with 100 μL of isopropanol, left to dissolve the formazan crystals for 5 min, and read at 550 and 630 nm using a BioTek Epoch plate reader (BioTek Instruments, Winooski, VT, USA) and Gen5 software (version 1.09).
# [5] = TEMPO scavenging by differential pulse voltammetry; settings: 2 mM TEMPO, one hour incubation, 0.1 M HClO4, DPV
# Experimental: (§1) The antioxidant properties were evaluated in terms of their activity against some free radicals, and other compounds reported in the literature, relevant for this purpose, such as: • ferric ions (Fe^3+)—used to test the reduction of the antioxidant character of the compounds; • DPPH˙ free radical– used to test the scavenging effect of the compounds on this radical; • hydrogen peroxide (H2O2)—used to test the scavenging effect of the synthesized molecules on this compound; • 2,2,6,6-tetramethylpiperidinyl-1-oxy (TEMPO)—used to test the scavenging effect of the synthesized molecules on this compound.
# TEMPO (2,2,6,6-tetramethylpiperidine-N-oxyl) is a stable organic nitroxide radical that has been reported to scavenge carbon-centered radicals.
# Differential pulse voltammetry (DPV) was then applied in order to evaluate the antioxidant effectiveness of the novel compounds through their ability to scavenge the free radical species.
# HaCaT cells [6] = assay: HaCaT cells integrity, acridine orange staining; assay type: cell-based, human; settings: treatment at IC50 concentration for 24 h
# Experimental: The cells were left to attach to 10 mm Ø glass slides for 24 h, at a confluence of 3 × 10^4 cells/glass slide. The slides were incubated for 10 min in acridine orange 1 µM in PBS 0.01M, and then the slides were investigated with an epifluorescence microscope Optika 510LD1 with 5 MP CCD cameras at 525 nm (green filter).
# [7] = Scavenging of hydrogen peroxide by cyclic voltammetry on Au SPE; settings: 0.5 mM H2O2, 0.5 mM compound, 0.1 M KCl
# Experimental: as §1
# The anodic oxidation of H2O2 was used to determine the antioxidant character of compounds in different samples. Gold-based SPEs purchased from Dropsens were used as working electrode for monitoring the change in the oxidation peak of hydrogen peroxide due to the addition of different amounts of the novel compounds. The oxidation signal of H2O2 obtained at the sweep of the potential in the range from −0.5 to 1.2 V on the gold electrode can be observed in Figure A6. The scavenging abilities of compounds from 1 to 8 on […] are compared in this figure. The addition of an antioxidant, by its ability to consume H2O2, determines the decrease of anodic peak characteristic for H2O2. […]
compound,measurement,setting,value
"C/C(=N\Nc1nc(C)cs1)c1ccc(O)cc1O [Compound 5a, Dihydroxy-Phenyl-Thiazol-Hydrazinium chloride]",% of DPPH˙ Scavenged,[1]; 1 µg/mL,13.11 * %
same,% of DPPH˙ Scavenged,[1]; 1.5 µg/mL,20.68 * %
same,% of DPPH˙ Scavenged,[1]; 2 µg/mL,28.87 * %
same,% of DPPH˙ Scavenged,[1]; 3 µg/mL,48.22 * %
same,% of DPPH˙ Scavenged,[1]; 5 µg/mL,79.92 * %
same,IC50,[1]; DPPH˙ scavenging,3.20 * µg/mL
same,"Chelation Capacity (%), ferrous ions",[2]; 50 µg/mL,0.27 * %
same,"Chelation Capacity (%), ferrous ions",[2]; 100 µg/mL,5.06 * %
same,% of ABTS˙^+ Scavenged,[3]; 0.5 µg/mL,32.42 * %
same,% of ABTS˙^+ Scavenged,[3]; 0.75 µg/mL,37.23 * %
same,% of ABTS˙^+ Scavenged,[3]; 1 µg/mL,41.36 * %
same,% of ABTS˙^+ Scavenged,[3]; 1.5 µg/mL,49.77 * %
same,% of ABTS˙^+ Scavenged,[3]; 2.5 µg/mL,70.60 * %
same,IC50,[3]; ABTS˙^+ scavenging,1.45 * µg/mL
same,pIC50,HaCaT cells [4],3.99
same,IC50,HaCaT cells [4],30.7 µg/mL
same,oxidation signal for TEMPO after incubation with the compound,[5],both the signal shift to higher oxidation potentials and its decrease
"Cc1csc(N/N=C/c2ccc(O)cc2O)n1.Cl [Compound 5b, (E)-2-(2,4-dihydroxybenzylidene)-1-(4-methylthiazol-2-yl)hydrazin-1-ium chloride]",pIC50,HaCaT cells [4],3.75
same,IC50,HaCaT cells [4],50.3 µg/mL
same,oxidation signal for TEMPO after incubation with the compound,[5],both the signal shift to higher oxidation potentials and its decrease
"Br.C/C(=N\Nc1nc(-c2ccccc2)cs1)c1ccc(O)cc1O [Compound 6a, (E)-2-(1-(2,4-dihydroxyphenyl)ethylidene)-1-(4-phenylthiazol-2-yl)hydrazin-1-ium bromide]",pIC50,HaCaT cells [4],3.51
same,IC50,HaCaT cells [4],127 µg/mL
same,oxidation signal for TEMPO after incubation with the compound,[5],does not decrease
"Br.Oc1ccc(/C=N/Nc2nc(-c3ccccc3)cs2)c(O)c1 [Compound 6b, (E)-2-(2,4-dihydroxybenzylidene)-1-(4-phenylthiazol-2-yl)hydrazin-1-ium bromide]",pIC50,HaCaT cells [4],> 5.90
same,IC50,HaCaT cells [4],< 0.5 µg/mL
same,oxidation signal for TEMPO after incubation with the compound,[5],does not decrease
"Br.C/C(=N\Nc1nc(-c2ccc(O)c(C(N)=O)c2)cs1)c1ccc(O)cc1O [Compound 7a, (E)-1-(4-(3-carbamoyl-4-hydroxyphenyl)thiazol-2-yl)-2-(1-(2,4-dihydroxyphenyl)ethylidene)hydrazin-1-ium bromide]","morphological effect on HaCaT cells, acridine orange staining",HaCaT cells [6],induced a necroptotic aspect of the cells
same,pIC50,HaCaT cells [4],4.12
same,IC50,HaCaT cells [4],35.1 µg/mL
same,oxidation signal for TEMPO after incubation with the compound,[5],does not decrease
"Br.NC(=O)c1cc(-c2csc(N/N=C/c3ccc(O)cc3O)n2)ccc1O [Compound 7b, (E)-1-(4-(3-carbamoyl-4-hydroxyphenyl)thiazol-2-yl)-2-(2,4-dihydroxybenzylidene) hydrazin-1-ium bromide]",pIC50,HaCaT cells [4],4.03
same,IC50,HaCaT cells [4],42.4 µg/mL
same,oxidation signal for TEMPO after incubation with the compound,[5],does not decrease
"C/C(=N\Nc1nc(-c2ccc(O)c(O)c2)cs1)c1ccc(O)cc1O.Cl [Compound 8a, (E)-2-(1-(2,4-dihydroxyphenyl)ethylidene)-1-(4-(3,4-dihydroxyphenyl)thiazol-2-yl)hydrazin-1-ium chloride]","morphological effect on HaCaT cells, acridine orange staining",HaCaT cells [6],induced nuclear fragmentation
same,scavenging effect on H2O2,[7],highest scavenging effect
same,pIC50,HaCaT cells [4],3.95
same,IC50,HaCaT cells [4],44.6 µg/mL
same,oxidation signal for TEMPO after incubation with the compound,[5],both the signal shift to higher oxidation potentials and its decrease
"Cl.Oc1ccc(/C=N/Nc2nc(-c3ccc(O)c(O)c3)cs2)c(O)c1 [Compound 8b, (E)-2-(2,4-dihydroxybenzylidene)-1-(4-(3,4-dihydroxyphenyl)thiazol-2-yl)hydrazin-1-ium chloride]",pIC50,HaCaT cells [4],4.65
same,IC50,HaCaT cells [4],8.54 µg/mL
same,oxidation signal for TEMPO after incubation with the compound,[5],both the signal shift to higher oxidation potentials and its decrease
